The values that follow come from ChEMBL document CHEMBL5291721, “A preclinical secondary pharmacology resource illuminates target-adverse drug reaction associations of marketed drugs” (Nat Commun, 2023).

Experiment [1] deals with T1, Alpha-1A adrenergic receptor (Homo sapiens, UniProt P35348).
T1 sequence (P35348 whole entry): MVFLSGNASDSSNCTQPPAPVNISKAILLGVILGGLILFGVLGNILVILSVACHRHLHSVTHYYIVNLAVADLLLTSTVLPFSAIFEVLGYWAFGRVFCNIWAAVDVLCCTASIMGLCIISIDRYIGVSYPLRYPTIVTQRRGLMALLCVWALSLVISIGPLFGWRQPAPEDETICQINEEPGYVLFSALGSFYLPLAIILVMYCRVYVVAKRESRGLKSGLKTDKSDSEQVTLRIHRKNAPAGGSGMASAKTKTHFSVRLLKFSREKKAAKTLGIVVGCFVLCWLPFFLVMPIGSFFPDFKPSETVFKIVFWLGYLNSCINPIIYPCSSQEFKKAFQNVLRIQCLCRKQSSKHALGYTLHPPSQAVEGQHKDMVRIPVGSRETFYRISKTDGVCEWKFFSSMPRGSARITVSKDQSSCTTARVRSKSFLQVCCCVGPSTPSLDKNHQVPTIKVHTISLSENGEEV
The class given is functional, cell-based.

Experiment [2] has as its target T2, Estrogen receptor (Homo sapiens, UniProt P03372).
T2 sequence (P03372 whole entry): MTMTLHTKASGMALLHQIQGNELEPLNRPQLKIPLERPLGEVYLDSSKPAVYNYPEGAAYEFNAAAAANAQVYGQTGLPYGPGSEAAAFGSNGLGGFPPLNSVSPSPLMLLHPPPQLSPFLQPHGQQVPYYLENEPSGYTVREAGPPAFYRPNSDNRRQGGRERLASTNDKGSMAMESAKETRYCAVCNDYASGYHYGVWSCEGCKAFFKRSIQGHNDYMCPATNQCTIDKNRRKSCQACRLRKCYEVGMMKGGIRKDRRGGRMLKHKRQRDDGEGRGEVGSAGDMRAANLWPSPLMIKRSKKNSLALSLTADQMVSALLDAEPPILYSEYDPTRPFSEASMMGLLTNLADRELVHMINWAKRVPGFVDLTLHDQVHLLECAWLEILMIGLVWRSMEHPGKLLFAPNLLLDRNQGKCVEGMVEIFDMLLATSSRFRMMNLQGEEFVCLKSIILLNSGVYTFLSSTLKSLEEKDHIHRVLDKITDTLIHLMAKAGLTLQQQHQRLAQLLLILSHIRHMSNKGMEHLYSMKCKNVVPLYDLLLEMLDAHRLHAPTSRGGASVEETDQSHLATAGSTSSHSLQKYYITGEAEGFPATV

The target of experiment [3] is Melanocortin receptor 4 (Homo sapiens, UniProt P32245).
The target of experiment [4] is Kappa-type opioid receptor (Homo sapiens, UniProt P41145).
The target in experiment [5] is T3, Endothelin-1 receptor (Homo sapiens, UniProt P25101).
T3 sequence (P25101 whole entry): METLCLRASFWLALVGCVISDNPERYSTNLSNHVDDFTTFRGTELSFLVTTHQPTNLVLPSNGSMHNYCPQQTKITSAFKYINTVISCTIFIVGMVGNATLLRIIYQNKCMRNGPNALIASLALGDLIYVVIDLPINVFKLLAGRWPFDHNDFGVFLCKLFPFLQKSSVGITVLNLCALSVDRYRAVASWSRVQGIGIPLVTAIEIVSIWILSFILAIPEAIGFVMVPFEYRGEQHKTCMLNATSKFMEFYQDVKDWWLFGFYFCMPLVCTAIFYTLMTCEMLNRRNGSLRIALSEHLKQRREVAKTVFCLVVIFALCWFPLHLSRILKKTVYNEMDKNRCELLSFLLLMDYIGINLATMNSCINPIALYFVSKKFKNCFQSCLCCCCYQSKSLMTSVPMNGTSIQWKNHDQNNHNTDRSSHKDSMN

Experiment [6] deals with Mu-type opioid receptor (Homo sapiens, UniProt P35372).
Experiment [7] addresses T4, Amine oxidase [flavin-containing] A (Homo sapiens, UniProt P21397).
T4 sequence (P21397 whole entry): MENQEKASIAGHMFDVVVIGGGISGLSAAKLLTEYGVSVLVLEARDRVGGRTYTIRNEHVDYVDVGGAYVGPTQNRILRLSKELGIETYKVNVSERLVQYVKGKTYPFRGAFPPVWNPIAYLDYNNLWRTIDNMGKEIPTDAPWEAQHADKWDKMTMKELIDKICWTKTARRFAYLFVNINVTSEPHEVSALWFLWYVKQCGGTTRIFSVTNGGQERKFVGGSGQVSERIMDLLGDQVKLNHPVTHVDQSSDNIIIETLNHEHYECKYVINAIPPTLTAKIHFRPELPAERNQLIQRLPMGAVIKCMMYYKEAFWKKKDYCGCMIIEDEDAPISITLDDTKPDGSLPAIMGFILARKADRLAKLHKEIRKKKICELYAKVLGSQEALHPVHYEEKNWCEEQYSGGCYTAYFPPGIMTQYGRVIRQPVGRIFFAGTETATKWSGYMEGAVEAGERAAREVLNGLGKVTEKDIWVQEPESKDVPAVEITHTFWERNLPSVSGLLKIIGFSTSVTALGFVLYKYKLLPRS
The format is functional.

Experiment [8] deals with 3',5'-cyclic-AMP phosphodiesterase 4A (Homo sapiens, UniProt P27815). The class given is functional.
For experiment [9], the target named is T5, Prostaglandin G/H synthase 1 (Homo sapiens, UniProt P23219). The class given is functional.
Experiment [10] has as its target T5, Prostaglandin G/H synthase 1. The class given is functional. This is another data set of the same source.
In experiment [11] the target is Sodium-dependent dopamine transporter (Homo sapiens, UniProt Q01959).
Experiment [12] concerns the target T6, Thromboxane A2 receptor (Homo sapiens, UniProt P21731).
T6 sequence (P21731 whole entry): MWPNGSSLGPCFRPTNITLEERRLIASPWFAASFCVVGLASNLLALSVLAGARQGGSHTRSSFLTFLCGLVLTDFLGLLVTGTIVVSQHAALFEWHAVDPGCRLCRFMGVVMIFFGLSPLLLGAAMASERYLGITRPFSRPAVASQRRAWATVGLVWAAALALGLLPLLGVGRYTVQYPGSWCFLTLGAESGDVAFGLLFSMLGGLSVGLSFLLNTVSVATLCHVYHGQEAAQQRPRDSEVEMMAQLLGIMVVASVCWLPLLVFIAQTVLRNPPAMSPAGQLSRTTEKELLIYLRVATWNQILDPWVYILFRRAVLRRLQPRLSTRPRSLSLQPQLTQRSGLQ
The format is functional, cell-based.
Further: assay procedure not described here.

Kappa-type opioid receptor, sequence (P41145 whole entry): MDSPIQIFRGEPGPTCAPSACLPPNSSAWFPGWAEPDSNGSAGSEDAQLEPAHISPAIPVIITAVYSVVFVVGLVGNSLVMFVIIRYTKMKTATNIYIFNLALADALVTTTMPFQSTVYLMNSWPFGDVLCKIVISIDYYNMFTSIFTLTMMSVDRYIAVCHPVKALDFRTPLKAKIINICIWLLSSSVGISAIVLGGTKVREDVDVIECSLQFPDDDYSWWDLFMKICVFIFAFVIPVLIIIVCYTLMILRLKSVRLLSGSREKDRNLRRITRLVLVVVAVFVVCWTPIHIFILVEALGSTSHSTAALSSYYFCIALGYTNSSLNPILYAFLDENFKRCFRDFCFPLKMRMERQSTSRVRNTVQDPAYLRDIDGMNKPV
T5 sequence (P23219 whole entry): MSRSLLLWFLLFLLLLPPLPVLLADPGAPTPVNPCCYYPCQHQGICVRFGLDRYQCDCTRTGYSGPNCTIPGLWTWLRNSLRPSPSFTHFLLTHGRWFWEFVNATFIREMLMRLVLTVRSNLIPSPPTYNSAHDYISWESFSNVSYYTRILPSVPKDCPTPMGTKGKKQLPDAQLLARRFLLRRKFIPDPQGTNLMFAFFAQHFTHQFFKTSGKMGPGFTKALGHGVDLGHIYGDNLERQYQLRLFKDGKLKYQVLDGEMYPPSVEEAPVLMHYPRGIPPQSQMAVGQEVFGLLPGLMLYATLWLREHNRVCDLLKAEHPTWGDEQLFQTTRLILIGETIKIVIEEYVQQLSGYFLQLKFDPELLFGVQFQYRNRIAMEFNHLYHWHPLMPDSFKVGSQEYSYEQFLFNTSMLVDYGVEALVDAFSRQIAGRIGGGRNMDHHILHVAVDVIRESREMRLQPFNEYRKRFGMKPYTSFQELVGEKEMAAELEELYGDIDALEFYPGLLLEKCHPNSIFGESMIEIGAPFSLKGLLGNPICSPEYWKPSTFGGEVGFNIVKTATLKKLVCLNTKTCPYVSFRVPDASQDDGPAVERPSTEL
3',5'-cyclic-AMP phosphodiesterase 4A, sequence (P27815 whole entry): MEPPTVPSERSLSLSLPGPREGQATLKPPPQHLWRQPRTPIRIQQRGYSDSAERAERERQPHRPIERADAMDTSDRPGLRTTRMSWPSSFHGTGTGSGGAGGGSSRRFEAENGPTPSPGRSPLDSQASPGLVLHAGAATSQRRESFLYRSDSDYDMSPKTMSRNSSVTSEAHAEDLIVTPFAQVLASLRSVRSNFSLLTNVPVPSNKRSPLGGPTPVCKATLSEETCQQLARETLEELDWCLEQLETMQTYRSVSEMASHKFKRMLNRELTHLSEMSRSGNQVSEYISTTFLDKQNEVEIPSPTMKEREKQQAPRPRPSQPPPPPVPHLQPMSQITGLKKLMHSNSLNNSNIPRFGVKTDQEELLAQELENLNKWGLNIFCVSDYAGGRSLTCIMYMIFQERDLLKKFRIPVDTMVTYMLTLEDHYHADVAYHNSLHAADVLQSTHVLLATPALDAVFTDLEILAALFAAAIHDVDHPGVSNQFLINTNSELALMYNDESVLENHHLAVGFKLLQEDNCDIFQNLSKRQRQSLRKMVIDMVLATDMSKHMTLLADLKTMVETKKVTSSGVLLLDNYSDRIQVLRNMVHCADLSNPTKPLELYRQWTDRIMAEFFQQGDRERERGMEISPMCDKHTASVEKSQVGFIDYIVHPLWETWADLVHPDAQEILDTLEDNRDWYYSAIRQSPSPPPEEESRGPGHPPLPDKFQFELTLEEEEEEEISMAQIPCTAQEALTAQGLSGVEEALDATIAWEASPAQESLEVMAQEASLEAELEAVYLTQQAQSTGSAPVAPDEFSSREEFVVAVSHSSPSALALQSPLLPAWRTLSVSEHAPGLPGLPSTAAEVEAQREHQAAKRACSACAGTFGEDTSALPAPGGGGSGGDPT
Sodium-dependent dopamine transporter, sequence (Q01959 whole entry): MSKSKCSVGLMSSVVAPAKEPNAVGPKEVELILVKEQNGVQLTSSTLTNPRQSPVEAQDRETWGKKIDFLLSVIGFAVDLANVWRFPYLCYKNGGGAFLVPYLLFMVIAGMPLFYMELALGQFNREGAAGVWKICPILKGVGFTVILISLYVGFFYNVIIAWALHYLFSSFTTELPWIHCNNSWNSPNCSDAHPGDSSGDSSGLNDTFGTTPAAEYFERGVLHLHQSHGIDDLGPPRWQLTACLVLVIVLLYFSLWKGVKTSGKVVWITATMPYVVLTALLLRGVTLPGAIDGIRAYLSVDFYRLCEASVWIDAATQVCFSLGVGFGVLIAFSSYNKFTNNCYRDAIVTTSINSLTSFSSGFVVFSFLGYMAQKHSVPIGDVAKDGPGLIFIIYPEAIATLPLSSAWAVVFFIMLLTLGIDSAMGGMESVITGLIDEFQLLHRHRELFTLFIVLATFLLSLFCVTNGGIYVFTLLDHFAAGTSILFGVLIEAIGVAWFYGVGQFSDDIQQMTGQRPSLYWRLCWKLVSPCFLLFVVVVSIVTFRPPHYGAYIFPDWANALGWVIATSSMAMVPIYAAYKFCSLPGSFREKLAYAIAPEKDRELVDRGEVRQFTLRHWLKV
Melanocortin receptor 4, sequence (P32245 whole entry): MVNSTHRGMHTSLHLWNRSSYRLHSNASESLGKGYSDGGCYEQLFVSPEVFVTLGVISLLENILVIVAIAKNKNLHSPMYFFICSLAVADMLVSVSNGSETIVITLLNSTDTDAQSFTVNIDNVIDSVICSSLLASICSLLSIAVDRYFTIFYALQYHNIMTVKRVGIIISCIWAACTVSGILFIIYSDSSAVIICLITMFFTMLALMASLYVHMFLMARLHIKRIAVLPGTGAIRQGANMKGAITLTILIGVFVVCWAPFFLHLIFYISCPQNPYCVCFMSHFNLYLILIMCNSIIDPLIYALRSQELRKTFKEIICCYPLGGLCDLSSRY
Mu-type opioid receptor, sequence (P35372 whole entry): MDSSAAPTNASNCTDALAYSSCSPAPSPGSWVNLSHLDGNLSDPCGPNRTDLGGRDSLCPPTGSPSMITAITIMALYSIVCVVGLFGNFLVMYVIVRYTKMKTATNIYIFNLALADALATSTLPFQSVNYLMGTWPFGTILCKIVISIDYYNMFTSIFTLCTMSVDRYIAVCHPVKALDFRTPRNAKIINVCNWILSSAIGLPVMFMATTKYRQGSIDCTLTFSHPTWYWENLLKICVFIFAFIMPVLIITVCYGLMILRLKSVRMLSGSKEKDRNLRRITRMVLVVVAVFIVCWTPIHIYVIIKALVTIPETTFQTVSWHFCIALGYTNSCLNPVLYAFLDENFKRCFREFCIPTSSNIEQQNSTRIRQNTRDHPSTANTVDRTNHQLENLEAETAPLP

As for `Clc1ccc(C(Cn2ccnc2)OCc2ccsc2Cl)c(Cl)c1` (stereo unspecified) [TIOCONAZOLE], the concentration at half-maximal activity (AC50) – broadly, the midpoint of the concentration-response curve, whichever way the signal moves – in experiment [1] is greater than 30 µM; in experiment [2] it was greater than 10 µM; in experiment [3] it was greater than 30 µM; in experiment [4] it was 1.8 µM.

With `Clc1ccc2c(N3CCN(CCCN4CCN(c5ccnc6cc(Cl)ccc56)CC4)CC3)ccnc2c1` [PIPERAQUINE], the AC50 was greater than 30 µM in experiment [1], greater than 30 µM in [5], greater than 30 µM in experiment [2] and 17 µM in [4].

On to `CNCc1ccc(-c2[nH]c3cc(F)cc4c3c2CCNC4=O)cc1` [RUCAPARIB], for which the AC50 in [2], in experiment [3] and in experiment [6] was greater than 30 µM each time.

In the case of `CCC(=O)O[C@]1(C(=O)CCl)[C@@H](C)C[C@H]2[C@@H]3C[C@H](F)C4=CC(=O)C=C[C@]4(C)[C@@]3(F)[C@@H](O)C[C@@]21C` [HALOBETASOL PROPIONATE], the AC50 in experiment [7], in experiment [8], in [9], in experiment [10], in experiment [11] and in [12] was greater than 30 µM throughout.

As for `COCC1=C(C(=O)O)N2C(=O)[C@@H](NC(=O)/C(=N\OC)c3csc(N)n3)[C@H]2SC1` [CEFPODOXIME], the AC50 in [1], in [5], in [2] and in experiment [4] was greater than 30 µM throughout.

Turning to `Cc1ccccc1N1CCN(CCc2nnc3n2CCCC3)CC1` [DAPIPRAZOLE], the AC50 in experiment [7], in experiment [8], in experiment [9], in experiment [10], in experiment [11] and in experiment [12] was greater than 30 µM in each case.

For the molecule `Cc1cc(NC(=O)C2=C(O)c3ccccc3S(=O)(=O)N2C)no1` [ISOXICAM], the AC50 in [7], in experiment [8], in [9], in experiment [10], in experiment [11] and in [12] was greater than 30 µM each time.

Turning to `C=C1CC[C@H](O)C/C1=C/C=C1\CCC[C@]2(C)[C@@H]([C@H](C)/C=C/[C@H](C)C(C)C)CC[C@@H]12` [ERGOCALCIFEROL], the AC50 in experiment [7] is greater than 30 µM; in experiment [8] it was greater than 30 µM; in experiment [9], 20.3 µM; in experiment [10] it was greater than 30 µM; in experiment [11], greater than 30 µM; in [12], greater than 30 µM.

For the molecule `CC[C@@H]([C@H](C)O)n1ncn(-c2ccc(N3CCN(c4ccc(OC[C@@H]5CO[C@@](Cn6cncn6)(c6ccc(F)cc6F)C5)cc4)CC3)cc2)c1=O` [POSACONAZOLE], the AC50 is greater than 30 µM in [7]; greater than 30 µM in experiment [8]; greater than 30 µM in experiment [9]; greater than 30 µM in experiment [10]; greater than 30 µM in experiment [11]; greater than 1 µM in experiment [12].

On to `Cc1cccc(N2CC(CO)OC2=O)c1` (stereo unspecified) [TOLOXATONE], for which the AC50 in [1], in experiment [5] and in [4] was greater than 30 µM in each case.

With `C#C[C@]1(OC(C)=O)CC[C@H]2[C@@H]3CCC4=C/C(=N/O)CC[C@@H]4[C@H]3CC[C@@]21CC` [NORGESTIMATE], the concentration at half-maximal activity (AC50) in [1], in [5], in experiment [2] and in experiment [4] was greater than 30 µM in each case.

Take `C=CCSCC1Nc2cc(Cl)c(S(N)(=O)=O)cc2S(=O)(=O)N1` (stereo unspecified) [ALTHIAZIDE]: the AC50 in experiment [7], in experiment [8], in [9], in [10], in [11] and in [12] was greater than 30 µM each time.

As to `C=CCNc1nc(NCC=C)nc(N2CCN(C(c3ccc(F)cc3)c3ccc(F)cc3)CC2)n1` [ALMITRINE], the concentration at half-maximal activity (AC50) in [5] was greater than 30 µM; in [2] it was greater than 30 µM; in experiment [4] it was 18 µM.

As for `CCCN[C@H]1CCc2nc(N)sc2C1` [PRAMIPEXOLE], the half-maximal activity concentration (AC50) in experiment [1] was greater than 30 µM; in [3], greater than 30 µM; in [4], greater than 10 µM; in [6] it was greater than 30 µM.

Take `COc1cc(N)c(Cl)cc1C(=O)NC1CCN(Cc2ccccc2)CC1` [CLEBOPRIDE]: the AC50 is greater than 30 µM in experiment [1], greater than 30 µM in experiment [5], greater than 30 µM in [2] and 22 µM in [4].

Consider `CC(C)[C@H](N)C(=O)OCC(CO)OCn1cnc2c(=O)nc(N)[nH]c21` (stereo partly specified) [VALGANCICLOVIR], for which the concentration at half-maximal activity (AC50) in experiment [2], in experiment [3] and in experiment [4] was greater than 30 µM throughout.

Turning to `Cc1c(N(C)CS(=O)(=O)O)c(=O)n(-c2ccccc2)n1C` [METAMIZOLE], the concentration at half-maximal activity (AC50) in experiment [7] is greater than 30 µM; in experiment [8], greater than 30 µM; in experiment [9], greater than 30 µM; in [10], 3.66 µM; in experiment [11] it was greater than 30 µM; in [12], greater than 30 µM.

With `CC1(C)S[C@@H]2[C@H](NC(=O)[C@H](N)c3ccccc3)C(=O)N2[C@H]1C(=O)OCOC(=O)[C@@H]1N2C(=O)C[C@H]2S(=O)(=O)C1(C)C` [SULTAMICILLIN], the concentration at half-maximal activity (AC50) in experiment [1], in [5], in [2] and in [4] was greater than 30 µM each time.

For the molecule `COc1ccc(CN(CCN(C)C)c2ccccn2)cc1` [PYRILAMINE], the AC50 is greater than 30 µM in experiment [7]; greater than 30 µM in [8]; greater than 30 µM in [9]; greater than 30 µM in [10]; 2.41 µM in experiment [11]; greater than 30 µM in [12].

As for `C[C@]12CCC(=O)C(O)=C1CC[C@@H]1[C@@H]2CC[C@]2(C)C(=O)CC[C@@H]12` [FORMESTANE], the AC50 in experiment [1], in [5] and in experiment [2] was greater than 30 µM each time.

With `CC(C)COCC(CN(Cc1ccccc1)c1ccccc1)N1CCCC1` (stereo unspecified) [BEPRIDIL], the AC50 was greater than 30 µM in experiment [5], greater than 30 µM in experiment [2] and 15.4 µM in experiment [3].

Take `Nc1ncn([C@H]2C[C@H](O)[C@@H](CO)O2)c(=O)n1` [DECITABINE]: the AC50 in experiment [3] and in [4] was greater than 30 µM throughout.
